This note sets out measurements from patent US20260193271A1, “PAN-KRAS INHIBITOR COMPOUND” (ADLAI NORTYE BIOPHARMA CO., LTD., priority 2022, published 2026).

Structures are written as SMILES. Where only a bound is given, the exact number is not on record here.

The experiment relates to AsPC-1 (G12D). Put plainly: In vitro cell proliferation inhibition test (CellTiter-Glo), AsPC-1. The class given is cell-based. To be noted: AsPC-1 pancreas cell line, KRAS (p.G12D), 72 h co-incubation. The text has this: Test Example 1: In Vitro Cell Proliferation Inhibition Test
Due to the diversity of RAS mutations and in order to evaluate the activity of compounds in different RAS mutation cell lines, we selected KRAS^WT, KRAS^G12C, KRAS^G12D, KRAS^G12V and BRAF mutation cell lines (see the table below) for in vitro activity evaluation and screening of compounds.
Protocol: CellTiter-Glo® Cell Luminescent Viability Assay (Promega)
According to the doubling time of different cell lines, different numbers of cells (1000-5000 cells/well) were seeded in 96-well plates containing 180 μl of corresponding culture medium and cultured overnight in a cell culture incubator at 37° C. with 5% CO2. On the second day, the test compound was pre-diluted 3-fold with culture medium, with the highest concentration being 100 μM, for a total of 10 concentration gradients; then 20 μl of culture medium containing different concentrations of the compound was added to the cells in the 96-well plate to ensure that the final concentration of the compound was up to 10 μM, with 10 concentration gradients of 3-fold dilution. After the cells and compounds were co-incubated for 72 h, the 96-well plate was removed from the incubator and equilibrated at room temperature for 30 min. Then, 25 μl of CellTiter-Glo® Reagent was added to each well and mixed thoroughly. The mixture was incubated at room temperature for 10 min, and then 100 μl of the sample was transferred to a white 96-well plate (OptiPlate™-96, PerkinElmer). The […] signal value was read using a multi-function microplate reader (SpectraMax® i3x, Molecular devices). The signal values were then standardized, and the curve was fitted using a four-parameter regression equation to calculate the half maximal inhibitory concentration (IC50) of the compound on the cell line.
In general, IC50 refers to the concentration that inhibits the measured activity by half. `CCn1c(-c2cc(-c3ccc(CN4CCOCC4)cc3)cnc2C(C)OC)c2c3cc(ccc31)-c1csc(n1)CC(NC(=O)C1C(C)C1C)C(=O)N1CCCC(N1)C(=O)OCC(C)(C)C2` [Compound 1′, (1r,2R,3S)-N-((6^3S,4S,Z)-1^1-ethyl-1^2-(2-((S)-1-methoxyethyl)-5-(4-(morpholinomethyl)phenyl)pyridin-3-yl)-10,10-dimethyl-5,7-dioxo-6^1,6^2,6^3,6^4,6^5,6^6-hexahydro-1^1H-8-oxa-2(4,2)-thiazola-1(5,3)-indola-6(1,3)-pyridazinacycloundecaphane-4-yl)-2,3-dimethylcyclopropane-1-carboxamide]: the IC50 stood at 4770 nM. Next, `CCn1c(-c2cc(-c3ccc4c(c3)CCN(C)C4)cnc2C(C)OC)c2c3cc(ccc31)-c1csc(n1)CC(NC(=O)C1C(C)C1C)C(=O)N1CCCC(N1)C(=O)OCC(C)(C)C2` [Compound 3′, (1r,2R,3S)-N-((6^3S,4S,Z)-1^1-ethyl-1^2-(2-((S)-1-methoxyethyl)-5-(2-methyl-1,2,3,4-tetrahydroisoquinolin-6-yl)pyridin-3-yl)-10,10-dimethyl-5,7-dioxo-6^1,6^2,6^3,6^4,6^5,6^6-hexahydro-1^1H-8-oxa-2(4,2)-thiazola-1(5,3)-indola-6(1,3)-pyridazinacycloundecaphane-4-yl)-2,3-dimethylcyclopropane-1-carboxamide]: 1230 nM. Next, `CCn1c(-c2cc(-c3cccc(CN(C)C)c3)cnc2[C@H](C)OC)c2c3cc(ccc31)-c1csc(n1)C[C@H](NC(=O)[C@H]1[C@H](C)[C@@H]1C)C(=O)N1CCC[C@H](N1)C(=O)OCC(C)(C)C2` [Compound 4′, (1r,2R,3S)-N-((6^3S,4S,Z)-1^2-(5-(3-((dimethylamino)methyl)phenyl)-2-((S)-1-methoxyethyl)pyridin-3-yl)-1^1-ethyl-10,10-dimethyl-5,7-dioxo-6^1,6^2,6^3,6^4,6^5,6^6-hexahydro-1^1H-8-oxa-2(4,2)-thiazola-1(5,3)-indola-6(1,3)-pyridazinacycloundecaphane-4-yl)-2,3-dimethylcyclopropane-1-carboxamide]: 646 nM; `CCn1c(-c2cc(-c3ccc(CN4CCOCC4)nc3)cnc2C(C)OC)c2c3cc(ccc31)-c1csc(n1)CC(NC(=O)C1CC1C)C(=O)N1CCCC(N1)C(=O)OCC(C)(C)C2` [Compound 5′, (1S,2S)-N-((6^3S,4S,Z)-1^1-ethyl-1^2-(6-((S)-1-methoxyethyl)-6′-(morpholinomethyl)-[3,3′-bipyridin]-5-yl)-10,10-dimethyl-5,7-dioxo-6^1,6^2,6^3,6^4,6^5,6^6-hexahydro-1^1H-8-oxa-2(4,2)-thiazola-1(5,3)-indola-6(1,3)-pyridazinacycloundecaphane-4-yl)-2-methylcyclopropane-1-carboxamide]: 99 nM. Next, `CCn1c(-c2cc(-c3ccc(CN4CCC(F)C4)cc3)cnc2C(C)OC)c2c3cc(ccc31)-c1csc(n1)CC(NC(=O)C1CC1C)C(=O)N1CCCC(N1)C(=O)OCC(C)(C)C2` [Compound 6′, (1S,2S)-N-((6^3S,4S,Z)-1^1-ethyl-1^2-(5-(4-(((R)-3-fluoropyrrolidin-1-yl)methyl)phenyl)-2-((S)-1-methoxyethyl)pyridin-3-yl)-10,10-dimethyl-5,7-dioxo-6^1,6^2,6^3,6^4,6^5,6^6-hexahydro-1^1H-8-oxa-2(4,2)-thiazola-1(5,3)-indola-6(1,3)-pyridazinacycloundecaphane-4-yl)-2-methylcyclopropane-1-carboxamide]: 1460 nM; `CCn1c(-c2cc(-c3ccc(CN4CCC(F)(F)CC4)cc3)cnc2C(C)OC)c2c3cc(ccc31)-c1csc(n1)CC(NC(=O)C1CC1C)C(=O)N1CCCC(N1)C(=O)OCC(C)(C)C2` [Compound 7′, (1S,2S)-N-((6^3S,4S,Z)-1^2-(5-(4-((4,4-difluoropiperidin-1-yl)methyl)phenyl)-2-((S)-1-methoxyethyl)pyridin-3-yl)-1^1-ethyl-10,10-dimethyl-5,7-dioxo-6^1,6^2,6^3,6^4,6^5,6^6-hexahydro-1^1H-8-oxa-2(4,2)-thiazola-1(5,3)-indola-6(1,3)-pyridazinacycloundecaphane-4-yl)-2-methylcyclopropane-1-carboxamide]: more than 10000 nM. For the compound `CCn1c(-c2cc(-c3ccc(CN4CCN(C)CC4)cc3)cnc2[C@H](C)OC)c2c3cc(ccc31)-c1csc(n1)C[C@H](NC(=O)[C@H]1C[C@@H]1C)C(=O)N1CCC[C@H](N1)C(=O)OCC(C)(C)C2` [Compound 8′, (1S,2S)-N-((6^3S,4S,Z)-1^1-ethyl-1^2-(2-((S)-1-methoxyethyl)-5-(4-((4-methylpiperazin-1-yl)methyl)phenyl)pyridin-3-yl)-10,10-dimethyl-5,7-dioxo-6^1,6^2,6^3,6^4,6^5,6^6-hexahydro-1^1H-8-oxa-2(4,2)-thiazola-1(5,3)-indola-6(1,3)-pyridazinacycloundecaphane-4-yl)-2-methylcyclopropane-1-carboxamide], the IC50 was 236 nM.

Turning to `CCn1c(-c2cc(-c3cccc(CN4CCOCC4)c3)cnc2C(C)OC)c2c3cc(ccc31)-c1csc(n1)CC(NC(=O)C1CC1C)C(=O)N1CCCC(N1)C(=O)OCC(C)(C)C2` [Compound 9′, (1S,2S)-N-((6^3S,4S,Z)-1^1-ethyl-1^2-(2-((S)-1-methoxyethyl)-5-(3-(morpholinomethyl)phenyl)pyridin-3-yl)-10,10-dimethyl-5,7-dioxo-6^1,6^2,6^3,6^4,6^5,6^6-hexahydro-1^1H-8-oxa-2(4,2)-thiazola-1(5,3)-indola-6(1,3)-pyridazinacycloundecaphane-4-yl)-2-methylcyclopropane-1-carboxamide], the IC50 turned out to be 836 nM. Next, `CCn1c(-c2cc(-c3ccc4c(c3)CN(C)CC4)cnc2C(C)OC)c2c3cc(ccc31)-c1csc(n1)CC(NC(=O)C1CC1C)C(=O)N1CCCC(N1)C(=O)OCC(C)(C)C2` [Compound 10′, (1S,2S)-N-((6^3S,4S,Z)-1^1-ethyl-1^2-(2-((S)-1-methoxyethyl)-5-(2-methyl-1,2,3,4-tetrahydroisoquinolin-7-yl)pyridin-3-yl)-10,10-dimethyl-5,7-dioxo-6^1,6^2,6^3,6^4,6^5,6^6-hexahydro-1^1H-8-oxa-2(4,2)-thiazola-1(5,3)-indola-6(1,3)-pyridazinacycloundecaphane-4-yl)-2-methylcyclopropane-1-carboxamide]: 1800 nM; `CCn1c(-c2cc(-c3nnc(C)n3C)cnc2C(C)OC)c2c3cc(ccc31)-c1csc(n1)CC(NC(=O)C1CC1C)C(=O)N1CCCC(N1)C(=O)OCC(C)(C)C2` [Compound 20′, (1S,2S)-N-((6^3S,4S,Z)-1^2-(5-(4,5-dimethyl-4H-1,2,4-triazol-3-yl)-2-((S)-1-methoxyethyl)pyridin-3-yl)-1^1-ethyl-10,10-dimethyl-5,7-dioxo-6^1,6^2,6^3,6^4,6^5,6^6-hexahydro-1^1H-8-oxa-2(4,2)-thiazola-1(5,3)-indola-6(1,3)-pyridazinacycloundecaphane-4-yl)-2-methylcyclopropane-1-carboxamide]: 87 nM.
